# Data reported in patent publication US20070010459A1, “Application of asiatic acid and its derivatives to treat pulmonary fibrosis” (priority 2005, published 2007).
# Assays:
# [1] = test system: primary culture of mice fibroblast; assay: bFGF-stimulated proliferation of primary fibroblast culture; type: cell-based; conditions: bFGF 0.5 g/ml; tested at 25, 12.5, 6.25, 3.125 or 1.56 μg
# Method: Using bFGF (0.5 µg/ml), the proliferation of primary culture of mice fibroblast with the presence of asiaticoside or asiatic acid at 25, 12.5, 6.25, 3.125 or 1.56 μg respectively was assessed.
# [2] = PK study: plasma asiaticoside and asiatic acid after intragastric asiaticoside; type: in vivo, SD rats; conditions: asiaticoside 100 mg/kg intragastric; 0.5-24 hours; LC/MS
# Method: SD rats were given asiaticoside through intragastric administration at 100 mg/kg. The blood samples were taken 0.5, 1, 2, 4, 6, 9, 12 and 24 hours after administration respectively. Plasma samples were prepared and analyzed for asiaticoside and asiatic acid concentration by LC/MS or GC/MS respectively. […] The plasma concentration of asiatic acid peaked after 4-6 hours after administration.
# [3] = test system: rats with pulmonary fibrosis induced by bleomycin; assay: Pharmacodynamics of asiaticoside in rats with pulmonary fibrosis induced by bleomycin; type: in vivo
# Method: The rats with lung fibrosis were induced by bleomycin through trachea administration and then treated with asiaticoside. […] The study regimen lasted for 28 days. The lung weight coefficient and hydroyproline (HXP) content were measured on day 2 and 8 after the formation of animal model. CT scan, pathology and serum ECM content measurements were conducted on day 14, 21 and 28 days respectively.
# [4] = test system: radiation pneumonia and subsequent pulmonary fibrosis induced by Cobalt-60 radiation; assay: Pharmacodynamics of asiaticoside in radiation pneumonia induced by Cobalt-60 radiation; type: in vivo, rats; set-up: Type IV (collagen content comparison, serum ECM) / Laminin (serum ECM) / Hyaluronic Acid (serum ECM): unit not given here
# Method: Radiation pneumonia and subsequent pulmonary fibrosis in rats was induced by Cobalt-60 radiation. The efficacies were assessed by the lung weight coefficient, HXP content, serum ECM measurement, CT scan and pathological examinations.
# [5] = Pharmacokinetics, tissue distribution and excretion of asiaticoside; type: in vivo, rats; conditions: rats, asiaticoside gavage, highest dose (100 mg/kg)
# Method: Three doses of asiaticoside (10, 33, 100 mg/kg) were gavaged to rats (n=6) and canines (n=4). After dosing, blood was sampled up to 120 or 216 hours in rats and canines respectively. Tissue distribution and excretion studies in rats were carried out with the highest dose.
# The respective asiaticoside and asiatic acid in the same bio-matrix were detected by LC/MS/MS and GC/MS. Because the secondary peak resembled a plasma concentration-time profile in both rat and canine rather than conventional compartment fitting, statistical moment analysis was used in calculating pharmacokinetic parameters. […] In addition to the targeted organ, both asiaticoside and asiatic acid were distributed in some other organs, which could be the sign to expand clinical indications.
# Beagle dogs [6] = assay: Chronic toxicity study in Beagle dogs; type: in vivo
# Method: Beagle dogs were given 18, 72 or 240 mg/kg asiaticoside respectively daily for 9 consecutive months along with a control group.
# Beagle dogs [7] = assay: Acute toxicity study in Beagle dogs; type: in vivo; conditions: single administration
# Text: Therefore the highest dosage was given to the animal. […] Food uptake and activity were normal in the observation period.
# SD rats [8] = assay: Embryonic and fetus toxicity and teratogenicity test in SD rats; type: in vivo
# Method: SD rats were given 120, 380 or 1200 mg/kg of asiaticoside respectively through intragastric administration for 10 consecutive days from day 6-15 of gestation. […] Nor there were any fetus anomalies or obform.
# SD rats [9] = assay: General reproductive toxicity study in rats; type: in vivo
# Method: SD rats were intragastric administrated with 120, 380 or 1200 mg/kg of asiaticoside respectively. Male and female were given 4 weeks or two weeks of asiaticoside before combining the cages. The male ones were given 5 additional weeks of asiaticoside, while female ones were given the drug till the 15th day of gestation. […] Weight, contour, internal organs and skeleton of fetus were all normal.
# [10] = asiaticoside, range over 3 doses (4, 12, 36 mg/kg)
compound,measurement,setting,value
"C[C@H]1[C@H](C)CC[C@]2(C(=O)O[C@@H]3O[C@H](CO[C@@H]4O[C@H](CO)[C@@H](O[C@@H]5O[C@H](C)[C@H](O)[C@@H](O)[C@H]5O)[C@H](O)[C@H]4O)[C@@H](O)[C@H](O)[C@H]3O)CC[C@]3(C)C(=CC[C@@H]4[C@@]5(C)C[C@@H](O)[C@H](O)[C@@](C)(CO)[C@@H]5CC[C@]43C)[C@H]12 [Asiaticoside, asiaticoside]",Inhibitory activity on fibroblast proliferation,[1],no apparent inhibitory activity
same,Plasma concentration of asiaticoside,[2],only trace quantity
same,HXP content,"[3]; asiaticoside 4 mg/kg, 28 days",19.63 ± 3.91 mg/g
same,Lung weight coefficient,"[3]; asiaticoside 4 mg/kg, 28 days",0.63%
same,HXP content,"[3]; asiaticoside 12 mg/kg, 28 days",18.95 ± 7.00 mg/g
same,Lung weight coefficient,"[3]; asiaticoside 12 mg/kg, 28 days",0.66%
same,HXP content,"[3]; asiaticoside 36 mg/kg, 28 days",18.56 ± 3.98 mg/g
same,Lung weight coefficient,"[3]; asiaticoside 36 mg/kg, 28 days",0.64%
same,Pathology,"[3]; asiaticoside 4, 12, 36 mg/kg","light fibroplasias in alveoli pulmonis diaphragm, light lymphocyte infiltration and compensatory emphysema"
same,CT scan findings,"[3]; asiaticoside 4, 12, 36 mg/kg, not dose dependent","ground glass infiltration in the lung tissue was found, but was significantly less than in the model group"
same,Overall efficacy,"[3]; asiaticoside 4, 12 and 36 mg/kg, 28 days",efficacious in preventing and treating lung fibrosis induced by bleomycin to certain extent
same,ET-1 (cytokine content),[3]; [10],229.62-241.60
same,Hyaluronic Acid (serum ECM),[3]; [10],112.66-312.28
same,Laminin (serum ECM),[3]; [10],43.83-55.75
same,"PIIIP (collagen content comparison, serum ECM)",[3]; [10],13.87-24.54
same,TNF-α (cytokine content),[3]; [10],5.20-6.49
same,TNF-[…] (cytokine content),[3]; [10],0.067-0.077
same,"Type IV (collagen content comparison, serum ECM)",[3]; [10],4.33-10.45
same,HXP content,[4]; asiaticoside 4 mg/kg,40.88 ± 9.77 mg/g
same,Hyaluronic Acid (serum ECM),[4]; asiaticoside 4 mg/kg,259.01 ± 64.39
same,Laminin (serum ECM),[4]; asiaticoside 4 mg/kg,39.21 ± 5.69
same,Lung weight coefficient,[4]; asiaticoside 4 mg/kg,0.42%
same,"PIIIP (collagen content comparison, serum ECM)",[4]; asiaticoside 4 mg/kg,21.00 ± 9.50
same,"Type IV (collagen content comparison, serum ECM)",[4]; asiaticoside 4 mg/kg,14.74 ± 4.03
same,HXP content,[4]; asiaticoside 12 mg/kg,32.78 ± 4.37 mg/g
same,Hyaluronic Acid (serum ECM),[4]; asiaticoside 12 mg/kg,246.91 ± 33.2
same,Laminin (serum ECM),[4]; asiaticoside 12 mg/kg,41.11 ± 9.15
same,Lung weight coefficient,[4]; asiaticoside 12 mg/kg,0.20%
same,"PIIIP (collagen content comparison, serum ECM)",[4]; asiaticoside 12 mg/kg,18.84 ± 10.70
same,"Type IV (collagen content comparison, serum ECM)",[4]; asiaticoside 12 mg/kg,11.97 ± 4.09
same,HXP content,[4]; asiaticoside 36 mg/kg,31.38 ± 4.75 mg/g
same,Hyaluronic Acid (serum ECM),[4]; asiaticoside 36 mg/kg,220.64 ± 67.55
same,Laminin (serum ECM),[4]; asiaticoside 36 mg/kg,48.29 ± 10.67
same,Lung weight coefficient,[4]; asiaticoside 36 mg/kg,0.34%
same,"PIIIP (collagen content comparison, serum ECM)",[4]; asiaticoside 36 mg/kg,14.27 ± 10.40
same,"Type IV (collagen content comparison, serum ECM)",[4]; asiaticoside 36 mg/kg,10.04 ± 5.69
same,CT scan findings,[4]; high dose asiaticoside group,a few fibrotic streaks
same,CT scan findings,[4]; low dose asiaticoside group,mild ground glass infiltration and atelectasis in the right lower lung
same,CT scan findings,[4]; median dose asiaticoside group,mild ground glass infiltration and fibrotic streaks in the right lung
same,Overall efficacy,[4]; pulmonary fibrosis induced by radiation,efficacious in treating pulmonary fibrosis induced by radiation to certain extent
same,Main excretion route,[5],"feces, bile and urine"
same,Tissue accumulation,[5],no apparent tissue accumulation
same,Nontoxic dose as multiple of proposed clinical dosage in human,Beagle dogs [6]; 240 mg/kg/d,40 ×
same,Nontoxic dose,"Beagle dogs [6]; 9-month chronic toxicity study, 18, 72 or 240 mg/kg daily",240 mg/kg/day
same,"Toxicity observations (behavior, activity, weight, mental state, excrement and urine)","Beagle dogs [6]; 18, 72 or 240 mg/kg daily for 9 consecutive months",no apparent toxicity
same,"Highest dose given, no toxicity observed (no acute LD50 could be measured)",Beagle dogs [7],10000 mg/kg
same,Dose without embryonic and fetus toxicity as multiple of effective dose (6 mg/kg) in mice,SD rats [8]; 1.2 g/kg,200 ×
same,Incidence rate of enlargement of fetus pelvis renalis,SD rats [8]; 1.2 g/kg,"increased, yet this was not statistically significant"
same,Embryonic and fetus toxicity,"SD rats [8]; 120, 380 or 1200 mg/kg intragastric, day 6-15 of gestation",no embryonic and fetus toxicity
same,Dose with no embryonic and fetus toxicity,"SD rats [8]; intragastric, day 6-15 of gestation",1200 mg/kg
same,Clinical observation in male and female animals,SD rats [9]; 1.2 g/kg,bleeding around apertura narium
same,Reproductive toxicity,"SD rats [9]; 120, 380 or 1200 mg/kg intragastric",no reproductive toxicity
